In general, Kd refers to the concentration at which binding is half-saturated. A higher Kd goes with weaker binding.

Consider 1 molecule from article PMC10294657, “The dCache Domain of the Chemoreceptor Tlp1 in Campylobacter jejuni Binds and Triggers Chemotaxis toward Formate” (mBio, 2023).

This test concerns the target T1, Tlp1 (Cj1506c), Tlp1-LBD (Campylobacter jejuni, UniProt Q0P8B2).
T1 construct: Tlp1-LBD (residues 31 to 326), dCache domain
The test is described as follows: ITC with purified Tlp1-LBD, pH […]°C. In kind it is binding.

T1 sequence (Q0P8B2 entry or part of it): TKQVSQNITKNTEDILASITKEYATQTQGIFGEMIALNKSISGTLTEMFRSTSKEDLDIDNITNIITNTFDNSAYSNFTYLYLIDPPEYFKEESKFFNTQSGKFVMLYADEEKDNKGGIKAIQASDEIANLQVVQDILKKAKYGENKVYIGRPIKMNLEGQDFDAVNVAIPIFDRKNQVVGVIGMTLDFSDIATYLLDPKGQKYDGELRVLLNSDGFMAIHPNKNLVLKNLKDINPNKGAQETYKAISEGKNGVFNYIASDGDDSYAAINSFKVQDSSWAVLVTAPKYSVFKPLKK

Molecule `O=CO` [formate] had a Kd of 245 ± 74 µM.
